Test system: NCI-H211 complex spheroid viability
Test: Anticancer human tumor NCI-H211 cell line growth inhibition [LSD1];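 note: luminescent viability read after seven days of drug exposure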;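 for viability, T/C: 100% = DMSO vehicle control viability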
Conditions: for IC50: curve of first compound; for viability, T/C: stronger effect = lower value
Excerpt: Multicellular complex tumor spheroid response to LSD1 Inhibitor Iadademstat in combination with a variety of drugs and investigational agents in selected tumor cell lines
The current study was undertaken to assess response to LSD1 inhibitors in combination with standard-of-care drugs and investigational agents in solid tumor complex spheroid models as well as in the K-562 leukemia. Complex spheroids include a stromal component modeled by human endothelial cells (HUVEC) and fibroblasts modeled by human mesenchymal stem cells (MSCs). The concentration ranges selected for each drug and investigational agent were based upon clinically achievable concentrations if the clinical Cmax of the agent was known.
Compounds. The drugs and investigational agents used in this study are listed on Table 1. All of the agents used, including staurosporine (NSC755774) and gemcitabine (NSC613327), were obtained from the Developmental Therapeutics Program, NCI. FDA-approved anticancer drugs are available from the NCI at http://dtp.nci.nih.gov/branches/dscb/oncology_drugset_explanation.html. Drugs and investigational agents were >95% pure by proton nuclear magnetic resonance (NMR) and liquid chromatography/mass spectrometry (LC/MS). Stock solutions were prepared at 400x in DMSO, stored at -70 degrees C, and diluted in fresh medium prior to their use. The final concentration of DMSO in cell culture wells never exceeded 0.25% (v/v). The FDA-approved anticancer drug set is available from the Developmental Therapeutics Program at https://dtp.cancer.gov/organization/dscb/obtaining/available_plates.htm. All drugs and investigational agents were tested over a range starting from a high concentration at or near the clinical Cmax and decreasing in half-log increments. If the clinical Cmax for an agent had not been determined, the highest concentration tested was 10 microM.
Cell Lines. The patient-derived cancer cell (PDC) lines: 292921-168-R-J2-PDC, K24384-001-R-PDC, and 521955-158-R2-J5-PDC pancreatic carcinomas, 556581-035-R-J1 ovarian carcinoma, 324938-238-R-J1-PDC, 855422-203-R-J1-PDC and 883617-216-R-J1-PDC urothelial bladder carcinomas, 743489-274-T-PDC renal cell carcinoma, 138582-R-J1 Merkel cell tumor, K60290-347-R-J1 and K57222-313-R-J1-PDC glioblastomas, 653999-131-R-J2-PDC, LG0703-F948-PDC, and 349418-098-R-PDC non-small cell lung carcinomas, 885512-296-R-J2-PDC, 171881-019-R-J1-PDC breast carcinomas and 186277-243-T-J2-PDC and 233499-124-R-J2-PDC colon carcinomas were obtained from the NCI Patient-Derived Models Repository (PDMR, https://pdmr.cancer.gov). The established cell lines NCI/ADR-RES (RRID:CVCL_14520 and OVCAR-5 (RRID:CVCL_1628) ovarian carcinomas, 786-O (RRID:CVCL_1051) and A498 (RRID:CVCL_A498) renal cell carcinoma, NCI-H211 (ATCC, cat. CRL-5824; RRID:CVCL_1529), NCI-H196 (ATCC, cat. CRL-5823, RRID:CVCL_1509), SW 1271 (ATCC, cat. CRL-2177, RRID:CVCL_1716) and NCI-H1876 (ATCC, cat. CRL-5902, RRID:CVCL_1503) small cell lung carcinomas, MDA-MB-231 (RRID:CVCL_0062) and MDA-MB-468 (RRID:CVCL_0419)breast carcinomas (10-12). Pooled donor human umbilical vein endothelial cells (HUVEC, Lonza, cat. CC-2519) and human mesenchymal stem cells (hMSC, Lonza, cat. PT-2501) were purchased from Lonza (Walkersville, MD).
Cell Culture. All cells were maintained in an incubator at 37 degrees C and 5% CO2 with 95% humidity. The PDC lines were cultured according to standard operating procedures established by the NCI PDMR (https://pdmr.cancer.gov). Briefly all PDCs were thawed and cultured in Matrigel-coated flasks prepared with a working solution of 1X Ham's F-12 nutrient mix, without supplementation (Invitrogen, Waltham, MA, cat. 11765054), 100 U/mL penicillin-streptomycin (Invitrogen, cat. 15140122), and 2.5% Matrigel (Corning Inc., Corning, NY, cat. 354248) for the first three passages. […]

COc1cc(C2c3cc4c(cc3C(OC3OC5COC(C)OC5C(O)C3O)C3COC(=O)C23)OCO4)cc(OC)c1O (stereo not given) + NC1CC1c1ccc(-c2cccc(O)c2)cc1
IC50 (second compound 0.1 µM): < 9.49 nM
IC50 (second compound 0.316 µM): < 9.49 nM
IC50 (second compound 1 µM): < 9.49 nM
IC50 (second compound 3.16 µM): < 9.49 nM
IC50 (second compound 10 µM): < 9.49 nM
viability, T/C (second compound 0.1 µM, first compound 0.00949 µM): 43.9%
viability, T/C (second compound 0.1 µM, first compound 0.03 µM): 11.5%
viability, T/C (second compound 0.1 µM, first compound 0.0949 µM): 4.34%
viability, T/C (second compound 0.1 µM, first compound 0.3 µM): 5.07%
viability, T/C (second compound 0.1 µM, first compound 0.949 µM): 5.27%
viability, T/C (second compound 0.1 µM, first compound 3 µM): 4.24%
viability, T/C (second compound 0.316 µM, first compound 0.00949 µM): 38.7%
viability, T/C (second compound 0.316 µM, first compound 0.03 µM): 11.5%
viability, T/C (second compound 0.316 µM, first compound 0.0949 µM): 4.54%
viability, T/C (second compound 0.316 µM, first compound 0.3 µM): 4.97%
viability, T/C (second compound 0.316 µM, first compound 0.949 µM): 4.77%
viability, T/C (second compound 0.316 µM, first compound 3 µM): 4.76%
viability, T/C (second compound 1 µM, first compound 0.00949 µM): 35.6%
viability, T/C (second compound 1 µM, first compound 0.03 µM): 10.3%
viability, T/C (second compound 1 µM, first compound 0.0949 µM): 6.12%
viability, T/C (second compound 1 µM, first compound 0.3 µM): 4.33%
viability, T/C (second compound 1 µM, first compound 0.949 µM): 3.45%
viability, T/C (second compound 1 µM, first compound 3 µM): 4.65%
viability, T/C (second compound 3.16 µM, first compound 0.00949 µM): 29.2%
viability, T/C (second compound 3.16 µM, first compound 0.03 µM): 7.68%
viability, T/C (second compound 3.16 µM, first compound 0.0949 µM): 5.57%
viability, T/C (second compound 3.16 µM, first compound 0.3 µM): 5.22%
viability, T/C (second compound 3.16 µM, first compound 0.949 µM): 5.76%
viability, T/C (second compound 3.16 µM, first compound 3 µM): 3.92%
viability, T/C (second compound 10 µM, first compound 0.00949 µM): 24.8%
viability, T/C (second compound 10 µM, first compound 0.03 µM): 9.09%
viability, T/C (second compound 10 µM, first compound 0.0949 µM): 5.19%
viability, T/C (second compound 10 µM, first compound 0.3 µM): 4.7%
viability, T/C (second compound 10 µM, first compound 0.949 µM): 5%
viability, T/C (second compound 10 µM, first compound 3 µM): 4.52%

Nc1ncn(C2CC(O)C(CO)O2)c(=O)n1 (stereo not given) + NC1CC1c1ccc(-c2cccc(O)c2)cc1
IC50 (second compound 0.1 µM): < 3.16 nM
IC50 (second compound 0.316 µM): < 3.16 nM
IC50 (second compound 1 µM): < 3.16 nM
IC50 (second compound 3.16 µM): < 3.16 nM
IC50 (second compound 10 µM): < 3.16 nM
viability, T/C (second compound 0.1 µM, first compound 0.00316 µM): 23.1%
viability, T/C (second compound 0.1 µM, first compound 0.01 µM): 11.9%
viability, T/C (second compound 0.1 µM, first compound 0.0316 µM): 5.65%
viability, T/C (second compound 0.1 µM, first compound 0.1 µM): 3.94%
viability, T/C (second compound 0.1 µM, first compound 0.316 µM): 3.2%
viability, T/C (second compound 0.1 µM, first compound 1 µM): 4.03%
viability, T/C (second compound 0.316 µM, first compound 0.00316 µM): 18.7%
viability, T/C (second compound 0.316 µM, first compound 0.01 µM): 9.82%
viability, T/C (second compound 0.316 µM, first compound 0.0316 µM): 6.26%
viability, T/C (second compound 0.316 µM, first compound 0.1 µM): 4.33%
viability, T/C (second compound 0.316 µM, first compound 0.316 µM): 3.7%
viability, T/C (second compound 0.316 µM, first compound 1 µM): 4.51%
viability, T/C (second compound 1 µM, first compound 0.00316 µM): 17.9%
viability, T/C (second compound 1 µM, first compound 0.01 µM): 10.6%
viability, T/C (second compound 1 µM, first compound 0.0316 µM): 5.51%
viability, T/C (second compound 1 µM, first compound 0.1 µM): 4%
viability, T/C (second compound 1 µM, first compound 0.316 µM): 4.16%
viability, T/C (second compound 1 µM, first compound 1 µM): 4.12%
viability, T/C (second compound 3.16 µM, first compound 0.00316 µM): 24.6%
viability, T/C (second compound 3.16 µM, first compound 0.01 µM): 13.7%
viability, T/C (second compound 3.16 µM, first compound 0.0316 µM): 6.51%
viability, T/C (second compound 3.16 µM, first compound 0.1 µM): 4.45%
viability, T/C (second compound 3.16 µM, first compound 0.316 µM): 3.03%
viability, T/C (second compound 3.16 µM, first compound 1 µM): 4.93%
viability, T/C (second compound 10 µM, first compound 0.00316 µM): 22.7%
viability, T/C (second compound 10 µM, first compound 0.01 µM): 17.1%
viability, T/C (second compound 10 µM, first compound 0.0316 µM): 9.21%
viability, T/C (second compound 10 µM, first compound 0.1 µM): 5.28%
viability, T/C (second compound 10 µM, first compound 0.316 µM): 3.35%
viability, T/C (second compound 10 µM, first compound 1 µM): 3.79%

Source: PubChem BioAssay AID1918940 (Molecular Pharmacology Branch, DTP, NCI, 2023)
